Test results from patent publication US9751869B2, “LXR modulators” (BRISTOL-MYERS SQUIBB COMPANY, priority 2013, dated 2017).

Molecular target: T1, LXRβ (Homo sapiens, UniProt P55055)
T1 construct: Co-transfection expression plasmids, comprising full-length LXRα (pCMX-h LXRα or LXRβ (pCMX-hLXRβ)); expressed in transfected cells; host or cells: CV-1 African green monkey kidney cells, transient transfection with pCMX-hLXRβ
T1 sequence (P55055 1-460): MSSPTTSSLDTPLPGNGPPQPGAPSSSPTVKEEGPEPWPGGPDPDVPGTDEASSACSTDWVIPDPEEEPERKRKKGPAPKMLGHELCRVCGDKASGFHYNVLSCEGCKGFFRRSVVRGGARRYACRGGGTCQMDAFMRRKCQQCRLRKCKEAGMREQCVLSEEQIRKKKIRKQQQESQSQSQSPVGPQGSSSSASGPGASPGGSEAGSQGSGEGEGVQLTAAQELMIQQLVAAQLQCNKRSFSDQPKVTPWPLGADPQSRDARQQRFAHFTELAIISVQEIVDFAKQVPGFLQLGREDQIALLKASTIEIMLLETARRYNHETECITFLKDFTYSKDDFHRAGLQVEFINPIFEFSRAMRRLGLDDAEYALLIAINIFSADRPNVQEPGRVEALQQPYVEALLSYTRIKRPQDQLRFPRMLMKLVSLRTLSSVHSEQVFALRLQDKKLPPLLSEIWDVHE
T1 sequence (P19793 1-462 partner): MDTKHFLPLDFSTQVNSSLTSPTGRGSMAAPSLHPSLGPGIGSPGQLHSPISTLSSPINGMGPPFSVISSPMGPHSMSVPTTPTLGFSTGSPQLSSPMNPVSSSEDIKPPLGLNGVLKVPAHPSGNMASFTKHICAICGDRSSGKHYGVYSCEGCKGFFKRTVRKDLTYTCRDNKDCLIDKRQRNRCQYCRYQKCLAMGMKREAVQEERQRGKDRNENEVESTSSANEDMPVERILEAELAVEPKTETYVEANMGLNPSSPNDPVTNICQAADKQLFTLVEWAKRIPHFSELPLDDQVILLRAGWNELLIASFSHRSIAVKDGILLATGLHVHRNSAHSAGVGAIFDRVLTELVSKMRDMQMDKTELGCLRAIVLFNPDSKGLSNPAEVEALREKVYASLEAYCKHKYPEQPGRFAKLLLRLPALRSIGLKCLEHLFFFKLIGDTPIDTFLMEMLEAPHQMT
Assay: LXR/LXRE co-transfection assay (luciferase reporter) in CV-1 cells, LXRβ
Format: cell-based
Details: for EC50: CV-1 cells transfected with pCMX-hLXRβ and LXREx1-Tk-Luciferase, 20 hours incubation, read-out: LXRbeta agonism EC50; for Emax: read-out: LXRbeta % EFFICACY
In short: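 CV-1 cells transiently co-transfected with full-length human LXRβ, LXRE-Tk-luciferase reporter and β-galactosidase control, then exposed to compound (≤0.5% DMSO) for 20 h at 37 °C before luminescence read. EC50 from 10-point, half-log dose curves; efficacy relative to the sulfonamide high control, means of 2–3 experiments.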

[1] = CV-1 cells, relative to maximum response of high control N-(3-((4-fluorophenyl)-(naphthalene-2-sulfonyl)amino)propyl)-2,2-dimethylpropionamide

Structure (SMILES)	EC50	Emax [1]	LXRbeta % EFFICACY [1]
Cc1nc(-c2ccc3c(c2)OC(F)(F)O3)c(-c2cc(-c3cc(F)c(CO)c(S(C)(=O)=O)c3)ccc2-c2cc(C(C)(C)C(C)(C)O)nn2C)o1 [Example 66, 3-(5-(3-(4-(2,2-difluorobenzo[d][1,3]dioxol-5-yl)-2-methyloxazol-5-yl)-3′-fluoro-4′-(hydroxymethyl)-5′-(methylsulfonyl)biphenyl-4-yl)-1-methyl-1H-pyrazol-3-yl)-2,3-dimethylbutan-2-ol]	27 nM	27%	–
Cc1c(C(C)(F)F)nn(C)c1-c1ccc(-c2cccc(S(C)(=O)=O)c2)cc1-n1nncc1-c1ccc(OC(F)(F)F)cc1 [Example 10, 1-(4-(3-(1,1-difluoroethyl)-1,4-dimethyl-1H-pyrazol-5-yl)-3′-(methylsulfonyl)biphenyl-3-yl)-5-(4-(trifluoromethoxy)phenyl)-1H-1,2,3-triazole]	31 nM	104%	–
Cc1nc(-c2ccc(OC(F)(F)F)cc2)c(-c2cc(-c3cccc(S(C)(=O)=O)c3)ccc2-c2cc(C(F)(F)F)nn2C)o1 [Example 53, 2-methyl-5-(4-(1-methyl-3-(trifluoromethyl)-1H-pyrazol-5-yl)-3′-(methylsulfonyl)biphenyl-3-yl)-4-(4-(trifluoromethoxy)phenyl)Oxazole]	46 nM	94%	–
CN(C)S(=O)(=O)c1cccc(-c2ccc(-c3cc(C(C)(F)F)nn3C)c(-n3nncc3-c3ccc(OC(F)(F)F)cc3)c2)c1 [Example 19, 4′-[3-(1,1-difluoroethyl)-1-methyl-1H-pyrazol-5-yl]-N,N-dimethyl-3′-(5-{4-[(trifluoromethyl)oxy]phenyl}-1H-1,2,3-triazol-1-yl)biphenyl-3-sulfonamide]	91 nM	79%	–
CNC(=O)C(F)(F)c1cc(-c2ccc(-c3cc(F)cc(S(C)(=O)=O)c3)cc2-c2oc(C)nc2-c2ccc3c(c2)OC(F)(F)O3)n(C)n1 [Example 85, 2-(5-(3-(4-(2,2-difluorobenzo[d][1,3]dioxol-5-yl)-2-methyloxazol-5-yl)-3′-fluoro-5′-(methylsulfonyl)biphenyl-4-yl)-1-methyl-1H-pyrazol-3-yl)-2,2-difluoro-N-methylacetamide]	588 nM	55%	–
Cc1nc(-c2ccc3c(c2)OC(F)(F)O3)c(-c2cc(-c3cc(F)c(CO)c(S(C)(=O)=O)c3)ccc2-c2cc(C(C)(C)C#N)nn2C)o1 [Example 67, 2-(5-(3-(4-(2,2-difluorobenzo[d][1,3]dioxol-5-yl)-2-methyloxazol-5-yl)-3′-fluoro-4′-(hydroxymethyl)-5′-(methylsulfonyl)biphenyl-4-yl)-1-methyl-1H-pyrazol-3-yl)-2-methylpropanenitrile]	24 nM	–	79%
Cc1nc(-c2ccc3c(c2)OC(F)(F)O3)c(-c2cc(-c3cc(F)c(CO)c(S(C)(=O)=O)c3)ccc2-c2cc(C(F)(F)C#N)nn2C)o1 [Example 47, 2-(5-(3-(4-(2,2-difluorobenzo[d][1,3]dioxol-5-yl)-2-methyloxazol-5-yl)-3′-fluoro-4′-(hydroxymethyl)-5′-(methylsulfonyl)biphenyl-4-yl)-1-methyl-1H-pyrazol-3-yl)-2,2-difluoroacetonitrile]	663 nM	72%	–
Cn1nc(C(F)(F)CNCCO)cc1-c1ccc(-c2cccc(S(C)(=O)=O)c2)cc1-n1nncc1-c1ccc(OC(F)(F)F)cc1 [Example 29, 2-((2,2-difluoro-2-(1-methyl-5-(3′-(methylsulfonyl)-3-(5-(4-(trifluoromethoxy)phenyl)-1H-1,2,3-triazol-1-yl)-[1,1′-biphenyl]-4-yl)-1H-pyrazol-3-yl)ethyl)amino)ethanol]	1230 nM	80%	–

Next, values leading:

EC50	Emax [1]	LXRbeta % EFFICACY [1]	Structure (SMILES)
18 nM	73%	–	COc1ncc(-c2oc(C)nc2-c2cc(-c3cc(F)c(CO)c(S(C)(=O)=O)c3)ccc2-n2ccc(C(F)(F)F)n2)cc1F [Example 408, (3-fluoro-3′-(5-(5-fluoro-6-methoxypyridin-3-yl)-2-methyloxazol-4-yl)-5-(methylsulfonyl)-4′-(3-(trifluoromethyl)-1H-pyrazol-1-yl)biphenyl-4-yl)methanol]
472 nM	58%	–	Cc1nc(-c2ccc(OC(F)(F)F)cc2)c(-c2cc(-c3cc(F)c(CO)c(S(C)(=O)=O)c3)ccc2-n2ccc(C(N)=O)n2)o1 [Example 320, 1-(3′-fluoro-4′-(hydroxymethyl)-3-(2-methyl-4-(4-(trifluoromethoxy)phenyl)oxazol-5-yl)-5′-(methylsulfonyl)biphenyl-4-yl)-1H-pyrazole-3-carboxamide]
119 nM	33%	–	Cc1nc(-c2ccc(OC(F)(F)F)cc2)c(-c2cc(-c3cccc(S(C)(=O)=O)c3)ccc2-n2ccc(C(=O)NCC(F)(F)F)n2)o1 [Example 371, 1-(3-(2-methyl-4-(4-(trifluoromethoxy)phenyl)oxazol-5-yl)-3′-(methylsulfonyl)-[1,1′-biphenyl]-4-yl)-N-(2,2,2-trifluoroethyl)-1H-pyrazole-3-carboxamide]
52 nM	73%	–	Cc1nc(-c2cc(-c3cc(F)c(CO)c(S(C)(=O)=O)c3)ccc2-n2ccc(C(F)(F)F)n2)c(-c2ccc(OC(F)(F)F)cc2)o1 [Example 413, (3-fluoro-3′-(2-methyl-5-(4-(trifluoromethoxy)phenyl)oxazol-4-yl)-5-(methylsulfonyl)-4′-(3-(trifluoromethyl)-1H-pyrazol-1-yl)biphenyl-4-yl)methanol]
18 nM	76%	–	Cc1nc(-c2cc(-c3cccc(S(C)(=O)=O)c3)ccc2-n2nc(C(F)(F)F)cc2C)c(-c2ccc(OC(F)F)cc2)o1 [Example 383, 5-(4-(difluoromethoxy)phenyl)-2-methyl-4-(4-(5-methyl-3-(trifluoromethyl)-1H-pyrazol-1-yl)-3′-(methylsulfonyl)biphenyl-3-yl)oxazole]
116 nM	72%	–	Cc1nc(-c2ccc(Cl)cc2)c(-c2cc(-c3cccc(S(C)(=O)=O)c3)ccc2-n2ccc(C(F)(F)F)n2)o1 [Example 344, 4-(4-chlorophenyl)-2-methyl-5-(3′-(methylsulfonyl)-4-(3-(trifluoromethyl)-1H-pyrazol-1-yl)biphenyl-3-yl)oxazole]
424 nM	76%	–	Cc1nc(-c2ccc(OC(F)(F)F)cc2)c(-c2cc(-c3cccc(C(C)(C)C(N)=O)c3)ccc2-n2ccc(CC#N)n2)o1 [Example 365, 2-(4′-(3-(cyanomethyl)-1H-pyrazol-1-yl)-3′-(2-methyl-4-(4-(trifluoromethoxy)phenyl)oxazol-5-yl)-[1,1′-biphenyl]-3-yl)-2-methylpropanamide]
196 nM	65%	–	Cc1nc(-c2ccc(Cl)c(OC(F)F)c2)c(-c2cc(-c3cccc(S(C)(=O)=O)c3)ccc2-n2ccc(C(F)(F)F)n2)o1 [Example 355, 4-(4-chloro-3-(difluoromethoxy)phenyl)-2-methyl-5-(3′-(methylsulfonyl)-4-(3-(trifluoromethyl)-1H-pyrazol-1-yl)biphenyl-3-yl)oxazole]
2040 nM	45%	–	Cc1cc(C(C)(F)F)nn1-c1ccc(-c2cc(F)c(CO)c(S(C)(=O)=O)c2)cc1-n1nncc1-c1ccc(OC(F)(F)F)cc1 [Example 305, {4′-[3-(1,1-difluoroethyl)-5-methyl-1H-pyrazol-1-yl]-3-fluoro-5-(methylsulfonyl)-3′-(5-{4-[(trifluoromethyl)oxy]phenyl}-1H-1,2,3-triazol-1-yl)biphenyl-4-yl}methanol]
